PubChem BioAssay (NCI)
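Following 48 hours of exposure in 96-well plates, responses at five concentrations were used to interpolate endpoints linearly. At the GI50, growth is halved. TGI marks complete inhibition of growth.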

Key:
Assay in all cases: NCI-60 cell line screen, 48 h
ACHN renal = tested on: ACHN renal
COLO 205 colon = tested on: COLO 205 colon
HCT-116 colon = tested on: HCT-116 colon
HCT-15 colon = tested on: HCT-15 colon
IGROV1 ovarian = tested on: IGROV1 ovarian
NCI-H23 lung = tested on: NCI-H23 lung
T-47D breast = tested on: T-47D breast
U251 CNS = tested on: U251 CNS
UACC-62 melanoma = tested on: UACC-62 melanoma
UO-31 renal = tested on: UO-31 renal

| Structure (SMILES) | TGI (ACHN renal) [µM] | TGI (COLO 205 colon) [µM] | TGI (HCT-116 colon) [µM] | TGI (HCT-15 colon) [µM] | TGI (IGROV1 ovarian) [µM] | TGI (NCI-H23 lung) [µM] | TGI (T-47D breast) [µM] | TGI (U251 CNS) [µM] | TGI (UACC-62 melanoma) [µM] | GI50 (ACHN renal) [µM] | GI50 (COLO 205 colon) [µM] | GI50 (HCT-116 colon) [µM] | GI50 (HCT-15 colon) [µM] | GI50 (IGROV1 ovarian) [µM] | GI50 (T-47D breast) [µM] | GI50 (U251 CNS) [µM] | GI50 (UACC-62 melanoma) [µM] | GI50 (NCI-H23 lung) [µM] | GI50 (UO-31 renal) [µM] | TGI (UO-31 renal) [µM] |
| --- | --- | --- | --- | --- | --- | --- | --- | --- | --- | --- | --- | --- | --- | --- | --- | --- | --- | --- | --- | --- |
| COc1cc2c(cc1O)-c1c(cnn1-c1ccc([N+](=O)[O-])cc1)CCC2 | 14.6 | 38.1 | 71.4 | 30.5 | 18.7 | 41.9 | > 100 | 24.9 | 8.42 | – | – | – | – | – | – | – | – | – | – | – |
| CS(=O)(=O)OCC1OC(n2ccc(NC(=O)c3ccccc3)nc2=O)CC1OS(C)(=O)=O (stereo not drawn) | > 100 | > 100 | > 100 | > 100 | > 100 | > 100 | > 100 | > 100 | > 100 | – | – | – | – | – | – | – | – | – | – | – |
| Nc1ncnc2c1ncn2Cc1ccc(C23CC4CC(CC(C4)C2)C3)c(OCc2cc(F)c(F)cc2F)c1 | > 100 | > 100 | 13.2 | > 100 | > 100 | – | > 100 | 42.8 | > 100 | 5.74 | 14.4 | 3.08 | 4.92 | 7.54 | > 100 | 5.59 | 4.75 | – | – | – |
| N#C/C(=N\Nc1ccc(Cl)cc1)C(=O)Nc1cc(-c2ccccc2)nn1-c1ccccc1 | > 100 | 4.51 | > 100 | > 100 | > 100 | > 100 | 7.12 | > 100 | > 100 | 2.84 | 2.07 | 2.7 | 2.14 | 4.12 | 2.01 | 3.08 | 2.03 | 2.65 | 2.93 | > 100 |
| Cc1cc2cc3cc(C)c(N(C)C)cc3[n+](C)c2cc1N(C)C | > 100 | 17.5 | 20.7 | 72.8 | > 100 | 31.2 | > 100 | 21.2 | 23.6 | 3.69 | 2.51 | 2.55 | 4.52 | 5.04 | 2.94 | 2.05 | 4.91 | 2.77 | 5.05 | 70.7 |
| N=C(N)c1ccc(OCCOCCOc2ccc(C(=N)N)cc2)cc1 | > 100 | > 100 | > 100 | > 100 | > 100 | > 100 | > 100 | > 100 | > 100 | > 100 | 50.1 | > 100 | 84.1 | > 100 | 82.5 | 77.6 | > 100 | 78 | 71.5 | > 100 |
| CC(C)Nc1ccc(Nc2ccccc2)cc1 | 15 | 31.3 | 31.4 | 77 | 37.3 | 65.3 | 38.8 | 32 | 51.6 | 3.31 | 14.3 | 14.1 | 21.5 | 14.2 | 15.5 | 12.8 | 11.6 | 14.2 | 14.1 | 64.9 |
| CCCCOc1ccc(NC(=O)n2nc(N)c3ccccc32)cc1 | > 89.4 | 41 | 55.7 | 70.4 | > 100 | 57.5 | > 88.2 | > 100 | 38.3 | 22.7 | 18 | 19.3 | 16.9 | 33 | 17 | 30.9 | 14.7 | 22.6 | 13.4 | > 100 |
| Oc1ccc(CN2CCC(N3CCOCC3)CC2)c2cccnc12 | > 100 | > 100 | > 100 | > 100 | > 100 | > 100 | > 100 | > 100 | 50.2 | 25.1 | 49.8 | 34.4 | 36.5 | 30.9 | 35.5 | 24.4 | 21.3 | 35 | 14.7 | 63.8 |
| Clc1cc2c(cc1Cl)Oc1cc(Cl)c(Cl)cc1O2 | > 0.625 | > 0.625 | > 0.625 | > 0.625 | > 0.625 | > 0.625 | > 0.625 | > 0.625 | > 0.625 | > 0.625 | > 0.625 | > 0.625 | > 0.625 | > 0.625 | > 0.625 | > 0.625 | > 0.625 | > 0.625 | 0.209 | > 0.625 |
| CCOC(=O)/C(=N\OC)C(O)C(F)(F)F (stereo not drawn) | > 100 | > 100 | > 100 | > 100 | > 100 | > 100 | > 100 | > 100 | > 100 | – | – | – | – | – | – | – | – | – | – | > 100 |
| O=c1ccc(N=Nc2ccc([N+](=O)[O-])cc2)ccc1O | > 100 | > 100 | > 100 | > 100 | > 100 | > 100 | > 100 | > 100 | 43.9 | 7.07 | 21.7 | 4.19 | 3.89 | 6.33 | 4.31 | 4.46 | 8.45 | 6.37 | 5.35 | > 100 |
| Cc1cc(Cl)cc2c(N=Nc3ccccc3[N+](=O)[O-])c(O)[nH]c12 | > 100 | > 100 | > 100 | > 100 | > 100 | > 100 | > 100 | > 100 | > 100 | – | – | – | – | – | – | – | – | – | – | > 100 |
| Cn1cc(C2=C(c3cccc(N)c3)C(=O)NC2=O)c2ccccc21 | > 25 | > 25 | > 25 | > 25 | > 25 | > 25 | > 25 | > 25 | > 25 | 5.85 | 10.8 | 7.94 | 12.8 | > 22.4 | 14.3 | 10.4 | 12.6 | 20.9 | 14.1 | > 25 |
| O=[N+]([O-])c1ccccc1N=Nc1c(O)[nH]c2ccc(Br)cc12 | 22.9 | 33.9 | > 67 | > 56 | 20.1 | 21.3 | > 78.7 | > 53.3 | 66.8 | – | – | – | – | – | – | – | – | – | – | 44.7 |
| CC/C(=C(/c1ccc(OCCN(C)C)cc1)c1ccc(OC(=O)CCC(=O)c2c(C)[nH]c(/C=C3\N=C(c4ccc[nH]4)C=C3OC)c2C)cc1)c1ccccc1 | 15.9 | 7.24 | 3.26 | 4.48 | 15.4 | 18.7 | 7.79 | 6.23 | 3.78 | 2.57 | 1.9 | 0.792 | 0.934 | 3.65 | 1.34 | 1.46 | 1.81 | 4.02 | 1.71 | 5.05 |
| CC(C)c1c(C(=O)Nc2ccccc2)c(-c2ccccc2)c(-c2ccc(F)cc2)n1CC[C@@H]1CC=CC(=O)O1 | 2.92 | 3.5 | 1.23 | 3.85 | 5.41 | 4.04 | 7.65 | 3.17 | 3.37 | 1.57 | 1.68 | 0.278 | 1.88 | 2.3 | 2.58 | 1.7 | 1.7 | 2.03 | 1.28 | 2.57 |
| Cc1ccc2c(c1)c1nc3cc(C)c(C)cc3nc1n2CCN(C)C | 5.92 | 4.6 | 10.1 | 7.75 | 4.77 | 5.9 | 17.7 | 8.85 | 3.57 | 0.821 | 1.24 | 0.63 | 1.91 | 1.93 | 3.34 | 2.3 | 1.59 | 2.04 | 1.07 | 3.48 |
| CC(=O)CCc1ccc(OC2OC(COC(=O)c3cc(O)c(O)c(O)c3)C(O)C(O)C2OC(=O)/C=C/c2ccccc2)cc1 (stereo not drawn) | 75.4 | 89.4 | 29.9 | > 100 | 38.6 | 38.6 | > 100 | 30.1 | 32.6 | 25.6 | 28.1 | 15.1 | 26.2 | 19 | 26.1 | 11.9 | 18.4 | 17.5 | 30.2 | > 100 |
| Cc1cc(NCCCNc2ccnc3cc(Cl)ccc23)nc(N2CCN(C)CC2)n1 | 21 | 6.29 | 13 | 22.8 | 39.9 | 28.6 | 30.9 | 17.2 | 4.55 | 3.71 | 2.28 | 2.22 | 3.29 | 8.14 | 6.7 | 3.91 | 2.05 | 5.9 | 4.05 | 24 |
| Cn1cc(C2=C(c3cn(CCO)c4ccccc34)C(=O)NC2=O)c2ccccc21 | > 25 | 5.89 | > 25 | > 25 | 14.9 | 15.2 | 13.1 | 13.7 | 7.99 | 4 | 1.25 | 1.49 | 1.57 | 4.93 | 3.96 | 1.98 | 2.58 | 4.75 | 3.2 | 14.6 |
| CN(Cc1ccc(Cl)cc1)c1ccc(CO)c(Cl)c1 | 23.6 | 18.1 | 8.75 | 39.5 | 2.24 | 23 | 5.4 | 15.9 | 2.2 | 5.83 | 5.95 | 0.445 | 5.42 | 0.365 | 0.764 | 3.01 | 0.33 | 5.98 | 3.23 | 14.5 |
| CCOc1ccc(-c2cnnn2-c2nonc2-n2cccc2)cc1 | > 100 | 0.808 | 1.46 | > 100 | > 100 | – | > 100 | > 78.7 | > 60.3 | 0.689 | 0.247 | 0.226 | 0.251 | 0.581 | 0.466 | 0.339 | 0.379 | 0.282 | 0.376 | > 88.8 |
| N#Cc1ncc(-c2ccc(C(F)(F)F)cc2)c(NCc2cc(C(F)(F)F)cc(C(F)(F)F)c2)n1 | > 100 | 4.57 | > 100 | > 100 | > 100 | 23.8 | > 100 | 53.5 | > 100 | 3.62 | 2.24 | 2.93 | 3.52 | 5.95 | 3.35 | 3.66 | 3.93 | 3.22 | 2.89 | 54.4 |
| C=C(C)C1Cc2c(cc(OC)c3c(=O)c4cccc(O)c4oc23)O1 (stereo not drawn) | 32.1 | > 100 | 39.4 | > 100 | 33.1 | 59.5 | 40 | 34.8 | 31.9 | – | – | – | – | – | – | – | – | – | – | 39 |
| Cc1ccc(NC(=O)Cc2ccc(/C=C/C(=O)c3ncc[nH]3)cc2)cc1 | 21.4 | > 25 | 9.59 | 15.6 | > 25 | > 25 | > 25 | > 25 | > 25 | 6.51 | 7.27 | 3.28 | 2.01 | 6.47 | 6.47 | 1.59 | 8.29 | 5.85 | 3.01 | 14.2 |
| O=C(Nc1ccccc1)c1nn(-c2cc(S(=O)(=O)O)c([N+](=O)[O-])cc2Cl)[n+](-c2cc(S(=O)(=O)[O-])c([N+](=O)[O-])cc2Cl)n1 | > 100 | > 100 | > 100 | > 100 | > 100 | > 100 | > 100 | > 100 | > 100 | – | – | – | – | – | – | – | – | – | – | > 100 |
